Experimental findings from patent EP0117412A1, “Propene derivatives and their use as plant growth inhibitors” (DAICEL CHEMICAL INDUSTRIES, LTD., priority 1983, dated 1984) are described below.

Broadly, the inhibition is the percentage by which the read-out fell short of the control.

Common to all, as to experiment: Test of plant growth inhibiting action on sprouted seeds grown 7 days in a dispersion of wettable powder, visual evaluation
Common to all, as to format: in vivo

Assay [1] concerns Echinochloa crus-galli. Conditions: 168 h, 20% wettable powder dispersed in water, 25°C, lighted thermostat, visual grade 1-5, read-out: Growth Inhibition, Seed of Plant Echinochloa crus-galli (converted); for inhibition at 20 ppm: Concentration 20 ppm; for inhibition at 100 ppm: Concentration 100 ppm. An excerpt:
(§1) Test Example (Test of Plant Growth Inhibiting Action)
(§2) 50 parts of talc, 25 parts of bentonite, 2 parts of Sorpol-9047 (surface active agent manufactured by Toho Chemical Co., Ltd.) and 3 parts of Sorpol-5039 (same as above) were thoroughly mixed to form a carrier. 50 weight parts of test compound was mixed with 200 weight parts of the carrier to prepare a 20% wettable powder. The wettable powder was dispersed in pure water to adjust the amount thereof to a definite concentration (see Table If to 17). Seeds of Oryza sativa or rice plant, Echinochloa crus-galli (a kind of millet) and Raphanus sativus (a kind of radish) all of which were forcedly sprouted in a separate dish, were put in the dispersion of wettable powder and grown for 7 days in a lighted thermostat at 25°C and the degree of growth was visually evaluated in accordance with the standard set forth below.
(§3) Standard of Evaluation in Growth Inhibition
(§4) • no influence: 1 • about 25% growth inhibition: 2 • about 50% growth inhibition: 3 • about 75% growth inhibition: 4 • about 100% growth inhibition: 5

The subject of assay [2] is Oryza sativa. Conditions: 168 h, 20% wettable powder dispersed in water, 25°C, lighted thermostat, visual grade 1-5, read-out: Growth Inhibition, Seed of Plant Oryza sativa (converted); for inhibition at 20 ppm: Concentration 20 ppm; for inhibition at 100 ppm: Concentration 100 ppm.
Description: as §1, §2, §3, §4

Assay [3] relates to Raphanus sativus. Conditions: 168 h, 20% wettable powder dispersed in water, 25°C, lighted thermostat, visual grade 1-5, read-out: Growth Inhibition, Seed of Plant Raphanus sativus (converted); for inhibition at 20 ppm: Concentration 20 ppm; for inhibition at 100 ppm: Concentration 100 ppm.
Description: as §1, §2, §3, §4

As to `C=C(CSc1ccccc1)C(=O)OC` [Compound 4-1, methyl 2-methylene-3-(phenylthio)propionate], the inhibition at 20 ppm in assay [1] is 100%; in assay [2], 100%; in assay [3], 0%. The inhibition at 100 ppm in assay [1] is 100%; in assay [2], 100%; in assay [3], 25%.

For the compound `C=C(CSc1ccc(Cl)cc1)C(=O)OC` [Compound 4-2, methyl 2-methylene-3-(4-chlorophenyl-thio)propionate], the inhibition at 20 ppm in assay [1] was 100%; in assay [2], 100%; in assay [3], 0%. Moreover, the values for the inhibition at 100 ppm in assay [1], in assay [2] and in assay [3] were 100%, 100% and 25%, respectively.

In the case of `C=C(CSc1ccc(C)cc1)C(=O)OC` [Compound 4-3], the inhibition at 20 ppm was 100% in assay [1], 75% in assay [2] and 0% in assay [3]. Further, the figures for the inhibition at 100 ppm in assay [1], in assay [2] and in assay [3] were 100%, 100% and 0%, respectively.

In the case of `C=C(CSc1ccc(OC)cc1)C(=O)OC` [Compound 4-4], the results for the inhibition at 20 ppm in assay [1], in assay [2] and in assay [3] were 100%, 100% and 0%, respectively. Also, the figures for the inhibition at 100 ppm in assay [1], in assay [2] and in assay [3] were 100%, 100% and 25%, respectively.

Consider `C=C(CSc1ccc2ccccc2c1)C(=O)OC` [Compound 4-5], for which the inhibition at 20 ppm in assay [1] is 100%; in assay [2], 75%; in assay [3], 0%. Besides, the inhibition at 100 ppm in assay [1] is 100%; in assay [2], 100%; in assay [3], 0%.

Regarding `C=C(CSCc1ccccc1)C(=O)OC` [Compound 4-6], the inhibition at 20 ppm in assay [1] is 100%; in assay [2] it was 100%; in assay [3] it was 0%. In addition, the inhibition at 100 ppm in assay [1] was 100%; in assay [2], 100%; in assay [3] it was 25%.

Regarding `C=C(CSC1CCCCC1)C(=O)OC` [Compound 4-7], the figures for the inhibition at 20 ppm in assay [1], in assay [2] and in assay [3] were 75%, 0% and 0%, respectively. For the same compound, the inhibition at 100 ppm is 100% in assay [1], 100% in assay [2] and 0% in assay [3].

Take `C=C(CSc1ccccn1)C(=O)OC` [Compound 4-8]: the inhibition at 20 ppm in assay [1], in assay [2] and in assay [3] was 0% in each case. Further, the inhibition at 100 ppm in assay [1] is 25%; in assay [2] it was 50%; in assay [3] it was 0%.

For the compound `C=C(CSCc1ccc(Cl)cc1)C(=O)OC` [Compound 4-9], the inhibition at 20 ppm in assay [1] was 100%; in assay [2], 100%; in assay [3], 0%. In addition, the inhibition at 100 ppm in assay [1] was 100%; in assay [2], 100%; in assay [3], 50%.

With `C=C(COc1ccccc1)C(=O)OC` [Compound 4-10, methyl 2-methylene-3-phenoxypropionate], the inhibition at 20 ppm was 100% in assay [1], 75% in assay [2] and 0% in assay [3]. In addition, the inhibition at 100 ppm in assay [1], in assay [2] and in assay [3] was 100% in each case.

In the case of `C=C(COc1ccc(Cl)cc1C)C(=O)OC` [Compound 4-11], the inhibition at 20 ppm in assay [1] is 100%; in assay [2] it was 75%; in assay [3] it was 0%. The inhibition at 100 ppm in assay [1] was 100%; in assay [2], 100%; in assay [3], 25%.

With `C=C(COc1ccc(Cl)cc1Cl)C(=O)OC` [Compound 4-12], the inhibition at 20 ppm in assay [1] was 100%; in assay [2], 75%; in assay [3] it was 0%. Besides, the inhibition at 100 ppm is 100% in assay [1], 100% in assay [2] and 0% in assay [3].

Take `C=C(COc1ccc(-c2ccccc2)cc1)C(=O)OC` [Compound 4-13]: the inhibition at 20 ppm in assay [1] was 25%; in assay [2], 0%; in assay [3], 0%. The inhibition at 100 ppm in assay [1] was 25%; in assay [2] it was 0%; in assay [3], 0%.

On to `C=C(COc1cccc(Cl)c1)C(=O)OC` [Compound 4-14], for which the inhibition at 20 ppm was 100% in assay [1], 100% in assay [2] and 25% in assay [3]. Also, the inhibition at 100 ppm in assay [1] was 100%; in assay [2] it was 100%; in assay [3] it was 75%.

In the case of `C=C(COc1ccc(F)cc1)C(=O)OC` [Compound 4-15, methyl 2-methylene-3-(4-fluorophenoxy)propionate], the inhibition at 20 ppm in assay [1] was 75%; in assay [2] it was 50%; in assay [3], 0%. For the same compound, the inhibition at 100 ppm in assay [1] was 100%; in assay [2] it was 100%; in assay [3], 50%.

As to `C=C(COc1cccc(C)c1)C(=O)OC` [Compound 4-16], the inhibition at 20 ppm in assay [1] is 100%; in assay [2], 75%; in assay [3], 0%. Besides, the inhibition at 100 ppm in assay [1] is 100%; in assay [2], 100%; in assay [3] it was 25%.

As to `C=C(COc1cccc2c1CCCC2)C(=O)OC` [Compound 4-17], the inhibition at 20 ppm in assay [1] is 100%; in assay [2], 75%; in assay [3], 0%. The inhibition at 100 ppm in assay [1] was 100%; in assay [2], 100%; in assay [3], 0%.

For the compound `C=C(COc1ccc(C)cc1)C(=O)OC` [Compound 4-18], the figures for the inhibition at 20 ppm in assay [1], in assay [2] and in assay [3] were 100%, 75% and 25%, respectively. In addition, the inhibition at 100 ppm in assay [1], in assay [2] and in assay [3] was 100% throughout.

For `C=C(COc1ccc(SC)cc1)C(=O)OC` [Compound 4-19], the inhibition at 20 ppm in assay [1] was 100%; in assay [2], 100%; in assay [3], 0%. The values for the inhibition at 100 ppm in assay [1], in assay [2] and in assay [3] were 100%, 100% and 50%, respectively.

Consider `C=C(COc1ccc(OC)cc1)C(=O)OC` [Compound 4-20], for which the results for the inhibition at 20 ppm in assay [1], in assay [2] and in assay [3] were 100%, 100% and 0%, respectively. For the same compound, the inhibition at 100 ppm in assay [1] is 100%; in assay [2], 100%; in assay [3], 0%.

Regarding `C=C(COc1ccc(C(F)(F)F)cc1)C(=O)OC` [Compound 4-21], the inhibition at 20 ppm was 0% in assay [1], 0% in assay [2] and 25% in assay [3]. The inhibition at 100 ppm in assay [1] is 100%; in assay [2], 100%; in assay [3], 25%.

As for `C=C(COc1ccc(C#N)cc1)C(=O)OC` [Compound 4-22], the values for the inhibition at 20 ppm in assay [1], in assay [2] and in assay [3] were 100%, 100% and 50%, respectively. The inhibition at 100 ppm in assay [1], in assay [2] and in assay [3] was 100% in each case.

Regarding `C=C(COc1ccc2c(C)cc(=O)oc2c1)C(=O)OC` [Compound 4-25], the inhibition at 20 ppm was 75% in assay [1], 25% in assay [2] and 0% in assay [3]. Further, the inhibition at 100 ppm is 100% in assay [1], 100% in assay [2] and 25% in assay [3].

Regarding `C=C(CON(CC)CC)C(=O)OC` [Compound 4-26], the inhibition at 20 ppm in assay [1], in assay [2] and in assay [3] was 0% in each case. Moreover, the inhibition at 100 ppm in assay [1] is 25%; in assay [2], 50%; in assay [3] it was 0%.

For `C=C(COc1cccc2ncccc12)C(=O)OC` [Compound 4-27], the figures for the inhibition at 20 ppm in assay [1], in assay [2] and in assay [3] were 100%, 75% and 0%, respectively. The inhibition at 100 ppm in assay [1] is 100%; in assay [2] it was 100%; in assay [3] it was 50%.
